Source: patent US4244946A, “Water-soluble peptides affecting gonadal function” (The Salk Institute for Biological Studies, priority 1979, dated 1981)

Tests used:
[1] = test system: dispersed rat pituitary cells; experiment: LH secretion by four-day-old primary culture of dispersed rat pituitary cells over 4 hours, radioimmunoassay for rat LH; assay type: cell-based; conditions: Table II, 4-hour period
[2] = test system: dispersed rat pituitary cells; experiment: as above; assay type: cell-based; conditions: for NANOGRAMS OF LH SECRETED: Table I, 4-hour period; for relative potency, compared to LRF: in vitro LH release, confidence limits in parentheses
Description: The peptides prepared in the foregoing Example I are assayed in vitro using a four-day-old primary culture of dispersed rat pituitary cells and compared with LRF. The levels of LH secreted over a 4-hour period in response to the application of peptides are assayed by specific radioimmunoassay for rat LH. The results of testing are expressed in Table I herebelow: […]

[3] = in vivo test of agonistic potency compared with LRF
Description: The effectiveness of the peptide compositions prepared in Examples I and II is also tested in vivo, and the relative agonistic potencies of peptides determined in the in vitro assays reported above correlate well with the potencies obtained from in vivo tests.

Compound | NANOGRAMS OF LH SECRETED ([1]; 0.3 nM peptide) [nanograms] | NANOGRAMS OF LH SECRETED ([1]; 1.0 nM peptide) [nanograms] | NANOGRAMS OF LH SECRETED ([1]; 3.0 nM peptide) [nanograms] | NANOGRAMS OF LH SECRETED ([2]; 0.1 nM peptide) [nanograms] | NANOGRAMS OF LH SECRETED ([2]; 0.3 nM peptide) [nanograms] | NANOGRAMS OF LH SECRETED ([2]; 1.0 nM peptide) [nanograms] | NANOGRAMS OF LH SECRETED ([2]; 3.0 nM peptide) [nanograms] | NANOGRAMS OF LH SECRETED ([1]; 0.003 nM peptide) [nanograms] | NANOGRAMS OF LH SECRETED ([1]; 0.01 nM peptide) [nanograms] | NANOGRAMS OF LH SECRETED ([1]; 0.03 nM peptide) [nanograms] | potency compared with LRF when tested in vivo [3] | relative potency, compared to LRF [2] | relative potency, compared to LRF ([2]; Pro^9 -NEt]-LRF) | NANOGRAMS OF LH SECRETED ([2]; 0.003 nM peptide) [nanograms] | NANOGRAMS OF LH SECRETED ([2]; 0.01 nM peptide) [nanograms] | NANOGRAMS OF LH SECRETED ([2]; 0.03 nM peptide) [nanograms] | relative potency, compared to LRF ([2]; listed as [D-His^6 (im-Bzl)]-LRF)
CC(C)C[C@H](NC(=O)CNC(=O)[C@H](Cc1ccc(O)cc1)NC(=O)[C@H](CO)NC(=O)[C@H](Cc1c[nH]c2ccccc12)NC(=O)[C@H](Cc1c[nH]cn1)NC(=O)[C@@H]1CCC(=O)N1)C(=O)N[C@@H](CCCNC(=N)N)C(=O)N1CCC[C@H]1C(=O)NCC(N)=O [LRF, p-Glu-His-Trp-Ser-Tyr-Gly-Leu-Arg-Pro-Gly-NH2, reference compound] | 631 | 1001 | 1496 | 1255 | 1767 | 2167 | 2867 | – | – | – | – | – | – | – | – | – | –
[D-His^6 (im-Bzl), Pro^9 -NEt]-LRF [Example II] | – | – | – | – | – | – | – | 895 | 1256 | 2008 | very significantly more potent than LRF | 217(57-952) times that of LRF | more than 200 times that of LRF | – | – | – | –
p-Glu-His-Trp-Ser-Tyr-D-His(im-Bzl)-Leu-Arg-Pro-Gly-NH2 [Example I] | – | – | – | 2225 | 2667 | – | – | – | – | – | very significantly more potent than LRF | 12(5.8-24) times that of LRF | – | 885 | 1345 | 2150 | about 12 times that of LRF
